Results reported in patent EP2406206B1, “TETRAHYDRONAPHTHALEN-2-OL DERIVATIVES” (MSD Oss B.V., priority 2009, dated 2010).

Key:
[1] = target: human estrogen receptor β receptor (hERβ) (Homo sapiens, UniProt Q92731); experiment: ERβ transactivation bioassay in recombinant CHO cells (rat oxytocin promoter, luciferase reporter); type: cell-based; conditions: for ERβ/ERα ratio: ERβ agonistic selectivity over ERα, transactivation data; for ERβ eudismic ratio: ratio of the activities of the eutomer and the distomer on ERβ; for EC50: transactivation of luciferase via hERβ in CHO cells, read-out: ERβ agonistic EC50
Description: (§1) The estrogenic and antiestrogenic activity of compounds was determined in an in vitro bioassay with recombinant Chinese hamster ovary (CHO) cells stably co-transfected with the human estrogen receptor α (hERα) or β receptor (hERβ), the rat oxytocin promoter (RO) and the luciferase reporter gene (LUC). The estrogenic activity of a test compound to stimulate the transactivation of the enzyme luciferase mediated via the estrogen receptors hERα or hERβ is expressed in nM. The assay was performed as described by De Gooyer et al., Steroids 68 (2003), 21-30. Table 7. ERβ and ERα transactivation data

[2] = target: T1, human estrogen receptor α (hERα) (Homo sapiens, UniProt P03372); experiment: ERα transactivation bioassay in recombinant CHO cells (rat oxytocin promoter, luciferase reporter); type: cell-based; conditions: ratio of the activities of the eutomer and the distomer on ERα
T1 sequence (P03372 1-595): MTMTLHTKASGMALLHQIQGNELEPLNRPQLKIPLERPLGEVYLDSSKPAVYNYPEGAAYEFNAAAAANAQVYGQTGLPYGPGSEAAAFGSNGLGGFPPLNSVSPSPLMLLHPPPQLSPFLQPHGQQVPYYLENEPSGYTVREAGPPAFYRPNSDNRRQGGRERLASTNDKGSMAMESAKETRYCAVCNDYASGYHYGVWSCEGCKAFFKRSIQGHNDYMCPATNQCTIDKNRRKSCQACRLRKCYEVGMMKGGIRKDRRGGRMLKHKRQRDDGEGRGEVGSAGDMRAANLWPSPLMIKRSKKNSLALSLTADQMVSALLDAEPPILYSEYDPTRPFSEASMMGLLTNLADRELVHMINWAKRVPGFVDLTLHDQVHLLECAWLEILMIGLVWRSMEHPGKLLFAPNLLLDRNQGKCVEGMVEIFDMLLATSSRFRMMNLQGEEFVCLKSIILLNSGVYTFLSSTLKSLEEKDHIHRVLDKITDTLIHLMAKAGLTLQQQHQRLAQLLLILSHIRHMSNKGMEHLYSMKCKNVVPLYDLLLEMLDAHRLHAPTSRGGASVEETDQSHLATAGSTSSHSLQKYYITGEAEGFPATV
Description: as §1

[3] = metabolic stability in human hepatocytes; type: in vitro ADME; conditions: cryopreserved human hepatocytes in suspension, tetrahydronaphthalen-2-ol, 37°C, sampled 0-120 min, LC-MS/MS, read-out: Human hepatocyte T1/2
Description: A number of compounds 9, 11 and 12 were tested on metabolic stability in human hepatocytes. The hepatic stability was compared to corresponding chroman compounds 25, 26 or 27 (see structures below).
Test compounds were diluted to 3 µM in incubation medium. Then 40 µl of the 3 µM test compounds was pipetted into a 96 well microtiter plate (flat bottom). Hepatocytes (stored at -140 °C) were thawed in a 37°C water bath. The cells were resuspended into pre-warmed thawing medium and were centrifuged for 5 minutes at 50g at room temperature. The supernatant was discarded and the remaining cell pellet was resuspended in warm incubation medium and diluted to 7.5 E5 cells/ml. Then 80 µl of the cell suspension was added to each well of the 96 well microtiter plate containing the test compounds. The resulting mixture was incubated at 37°C and was sampled at t=0, 5, 30, 60, and 120 min. The samples were analyzed by LC-MS/MS to determine the content of unchanged test compound. Based on the rate of reduction of the content of test compound over time, the half-live (T1/2) was calculated. Metabolic stability in human hepatocytes

[4] = tested on: acinar epithelium of the ventral prostate; experiment: short-term prostate apoptosis and proliferation model in castrated rats; type: in vivo, Wistar rats
Description: Selected compounds were tested in a short-term prostate apoptosis and proliferation model in castrated rats.
Intact mature male Wistar rats (350-400 g) were castrated and left to recover for 1 week. 7 days after the castration rats received a single subcutaneous injection of testosterone buciclate (TB), a long-acting testosterone ester, in arachis oil (20 mg/kg) with a volume of 1 ml/kg and were subsequently treated once daily orally for 3 days with the test substance at doses between 0 and 1000 µg/kg, dissolved in gelatin/mannitol and dosed with a volume of 1 ml/kg.
At the end of the experiment rats were euthanized, the prostates were removed, weighed and processed for histology.
Apoptosis of the acinar epithelium of the ventral prostate was determined with TUNEL ([…]) staining. Apoptotic cells show nuclear DNA fragmentation and the TUNEL assay end-labels the fragmented DNA by incorporating biotinylated dUTP at the 3'-OH DNA ends using the enzyme Terminal deoxynucleotidyl Transferase (TdT). Positively stained cells are counted per acinus (glandular unit) in the ventral prostate. Proliferation of the acinar epithelium of the ventral prostate was determined by immunohistochemical staining with an antibody directed against Ki67 (clone Mib5). Positively stained cells are counted per acinus (glandular unit) in the ventral prostate. Statistical significance is determined as compared to TB alone by one-way ANOVA.

Sequence of human estrogen receptor β receptor (hERβ) (Q92731 whole entry): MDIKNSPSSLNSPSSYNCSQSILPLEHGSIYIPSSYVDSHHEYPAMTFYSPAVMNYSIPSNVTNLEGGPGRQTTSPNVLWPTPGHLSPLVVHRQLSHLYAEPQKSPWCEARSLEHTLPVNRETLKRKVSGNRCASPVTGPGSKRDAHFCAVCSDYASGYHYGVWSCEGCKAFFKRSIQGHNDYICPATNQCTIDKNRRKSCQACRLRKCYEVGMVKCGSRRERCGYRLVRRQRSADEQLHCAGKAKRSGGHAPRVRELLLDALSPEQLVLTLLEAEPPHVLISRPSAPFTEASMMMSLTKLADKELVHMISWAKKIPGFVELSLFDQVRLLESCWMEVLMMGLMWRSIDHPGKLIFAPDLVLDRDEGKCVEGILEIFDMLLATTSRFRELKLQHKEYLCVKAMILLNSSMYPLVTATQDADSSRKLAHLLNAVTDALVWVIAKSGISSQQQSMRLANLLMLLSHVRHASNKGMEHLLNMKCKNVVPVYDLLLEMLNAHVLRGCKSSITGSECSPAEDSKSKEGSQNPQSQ

SMILES | ERβ/ERα ratio [1] | ERβ eudismic ratio [1] | EC50 [1] | ERα eudismic ratio [2] | half-life at 1 µM [3] | epithelial cell proliferation ([4]; Ki67 staining, ventral prostate, at 3 µg/kg orally, compared to TB-alone treated rats) | epithelial cell apoptosis ([4]; TUNEL staining, ventral prostate, castrated rats given TB, treated once daily orally for 3 days, compared to TB alone) | minimal active dose (MAD) ([4]; increase in epithelial cell apoptosis, once daily orally for 3 days)
C[C@H]1[C@@H](c2ccc(O)cc2)Cc2ccc(O)cc2[C@H]1Cc1ccccc1F (single isomer, unassigned) [Compound 11a] | 189 | >263 | 0.38 nM | >1.4 | 40.5 min | decrease | statistically significant (p<0.01) increase | 3 µg/kg
CC[C@H]1[C@@H](c2ccc(O)cc2)Cc2ccc(O)cc2[C@H]1Cc1ccccc1F (single isomer, unassigned) [Compound 11b] | 167 | 93 | 0.15 nM | 0.9 | 40.7 min | – | – | –
CC[C@H]1[C@@H](c2ccc(O)c(F)c2)Cc2ccc(O)cc2[C@H]1Cc1ccccc1F (single isomer, unassigned) [Compound 11q] | >169 | 7 | 0.59 nM | <0.3 | 82.2 min | – | – | –
